In patent US10710986B2, “PD-1/PD-L1 inhibitors” (Gilead Sciences, Inc., priority 2018, dated 2020) one finds IC50 data, which are given here for 21 compounds.

The experiment concerns the target PD-1/PD-L1 (Homo sapiens (Human), UniProt Q9NZQ7). The experiment is described as follows: PD-1/PD-L1 biochemical protein-protein interaction assay (ALPHA). The settings on record: 0.3 nM His tagged PD-L1, 2.5 nM biotinylated Fc-PD-1, 60 minutes at 25° C., read-out: IC50 PD-L1-PD1.

SMILES strings stand for the structures.

Chain of PD-1/PD-L1 (Q9NZQ7 19-238): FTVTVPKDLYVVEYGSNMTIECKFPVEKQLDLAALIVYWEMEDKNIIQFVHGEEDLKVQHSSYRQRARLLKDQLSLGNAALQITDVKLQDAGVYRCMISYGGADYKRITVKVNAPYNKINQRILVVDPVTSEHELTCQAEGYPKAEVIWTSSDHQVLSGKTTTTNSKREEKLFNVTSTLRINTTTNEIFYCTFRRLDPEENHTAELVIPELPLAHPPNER

By IC50 is commonly meant the concentration needed to halve the response being measured. On to `COc1nc(-c2cccc(-c3cccc(-c4cnc(CNC(CCO)C5CC5)c(OC)n4)c3Cl)c2Cl)cnc1CNC[C@@H]1CCC(=O)N1` (stereo partly drawn) [compound 237], for which the IC50 is 0.064 nM. As for `COCC(NCc1ncc(-c2cccc(-c3cccc(-c4cnc(CNC[C@@H]5CCC(=O)N5)c(OC)n4)c3Cl)c2Cl)nc1OC)C1CC1` (stereo partly drawn) [compound 238], the figure is 0.297 nM; as for `COc1nc(-c2cccc(-c3cccc(-c4cnc(CN5CC(F)(CO)C5)c(OC)n4)c3Cl)c2Cl)cnc1CN1CC(F)(CO)C1` [compound 239], 0.3 nM; as for `COc1nc(-c2cccc(-c3cccc(-c4cnc(CN5CC(O)(CO)C5)c(OC)n4)c3Cl)c2Cl)cnc1CN1CC(O)(CO)C1` [compound 240], 0.09 nM. Next, `COc1nc(-c2cccc(-c3cccc(-c4cnc(CN[C@H]5C[C@@](C)(O)C5)c(OC)n4)c3Cl)c2Cl)cnc1CN[C@H]1C[C@@](C)(O)C1` [compound 241]: 0.27 nM; `COc1nc(-c2cccc(-c3cccc(-c4cnc(CNC[C@H]5C[C@H](O)C5)c(OC)n4)c3Cl)c2Cl)cnc1CNC[C@H]1C[C@H](O)C1` [compound 242]: 0.14 nM; `COc1nc(-c2cccc(-c3cccc(-c4cnc(CNC[C@H]5C[C@@H](O)C5)c(OC)n4)c3Cl)c2Cl)cnc1CNC[C@H]1C[C@@H](O)C1` [compound 243]: 0.11 nM. As for `COc1nc(-c2cccc(-c3cccc(-c4cnc(CNC[C@@H]5CC(C)(C)C(=O)N5)c(OC)n4)c3Cl)c2Cl)cnc1CNC[C@@H]1CC(C)(C)C(=O)N1` [compound 244], the figure is 0.08 nM; as for `COc1nc(-c2cccc(-c3cccc(-c4cnc(CNC[C@@H]5CC(C)(C)C(=O)N5)c(OC)n4)c3Cl)c2Cl)cnc1CNC[C@@H]1CCC(=O)N1` [compound 245], 0.15 nM; as for `COc1nc(-c2cccc(-c3cccc(-c4cnc(CNC[C@@H]5COC(=O)N5)c(OC)n4)c3Cl)c2Cl)cnc1CNC[C@@H]1CCC(=O)N1` [compound 246], 0.21 nM. As for `COc1nc(-c2cccc(-c3cccc(-c4cnc(CNC(CO)CCF)c(OC)n4)c3Cl)c2Cl)cnc1CNC[C@@H]1CCC(=O)N1` (stereo partly drawn) [compound 247], the IC50 stood at 0.13 nM. Next, `COc1nc(-c2cccc(-c3cccc(-c4cnc(CNC(CO)CF)c(OC)n4)c3Cl)c2Cl)cnc1CNC[C@@H]1CCC(=O)N1` (stereo partly drawn) [compound 248]: 0.18 nM; `COCC(NCc1ncc(-c2cccc(-c3cccc(-c4cnc(CNC[C@@H]5CCC(=O)N5)c(OC)n4)c3Cl)c2Cl)nc1OC)C(F)(F)F` (stereo partly drawn) [compound 249]: 2.67 nM; `COc1nc(-c2cccc(-c3cccc(-c4cnc(CN5CCN[C@@H](C)C5)c(OC)n4)c3Cl)c2Cl)cnc1CNC[C@@H]1CCC(=O)N1` [compound 250]: 0.12 nM. `COc1nc(-c2cccc(-c3cccc(-c4cnc(CN5CCN[C@H](C)C5)c(OC)n4)c3Cl)c2Cl)cnc1CNC[C@@H]1CCC(=O)N1` [compound 251]: the IC50 turned out to be 0.07 nM.

Regarding `COc1nc(-c2cccc(-c3cccc(-c4cnc(CN5CC(F)(CO)C5)c(OC)n4)c3Cl)c2Cl)cnc1CNC[C@@H]1CCC(=O)N1` [compound 252], the IC50 is 0.06 nM. Next, `COc1nc(-c2cccc(-c3cccc(-c4cnc(CN5CC(O)(CO)C5)c(OC)n4)c3Cl)c2Cl)cnc1CNC[C@@H]1CCC(=O)N1` [compound 253]: 0.09 nM. In the case of `COc1nc(-c2cccc(-c3cccc(-c4cnc(CNC[C@@H]5CCC(=O)N5)c(OC)n4)c3Cl)c2Cl)cnc1CNC[C@H]1CCN1` [compound 254], the IC50 came out at 0.11 nM. As for `COc1nc(-c2cccc(-c3cccc(-c4cnc(CNC[C@@H]5CCC(=O)N5)c(OC)n4)c3Cl)c2Cl)cnc1CNCC1CNC1` [compound 255], the figure is 0.08 nM. On to `COc1nc(-c2cccc(-c3cccc(-c4cnc(CN5CCN(C=O)CC5)c(OC)n4)c3Cl)c2Cl)cnc1CNC[C@@H]1CCC(=O)N1` [compound 256], for which the IC50 was 0.16 nM. As for `COc1nc(-c2cccc(-c3cccc(-c4cnc(CN[C@H](CO)C(C)C)c(OC)n4)c3Cl)c2Cl)cnc1CNC[C@@H]1CCC(=O)N1` [compound 257], the IC50 was 0.426 nM.
